How the values were obtained:
hair count = assay: Clinical studies of hair count; format: in vivo
MAOB [1] = target: T1, MAOB (Homo sapiens, UniProt P27338); assay: MAOB enzyme inhibition assay; format: biochemical; settings: active = >=40% inhibition and dose response
T1 sequence (P27338 1-520): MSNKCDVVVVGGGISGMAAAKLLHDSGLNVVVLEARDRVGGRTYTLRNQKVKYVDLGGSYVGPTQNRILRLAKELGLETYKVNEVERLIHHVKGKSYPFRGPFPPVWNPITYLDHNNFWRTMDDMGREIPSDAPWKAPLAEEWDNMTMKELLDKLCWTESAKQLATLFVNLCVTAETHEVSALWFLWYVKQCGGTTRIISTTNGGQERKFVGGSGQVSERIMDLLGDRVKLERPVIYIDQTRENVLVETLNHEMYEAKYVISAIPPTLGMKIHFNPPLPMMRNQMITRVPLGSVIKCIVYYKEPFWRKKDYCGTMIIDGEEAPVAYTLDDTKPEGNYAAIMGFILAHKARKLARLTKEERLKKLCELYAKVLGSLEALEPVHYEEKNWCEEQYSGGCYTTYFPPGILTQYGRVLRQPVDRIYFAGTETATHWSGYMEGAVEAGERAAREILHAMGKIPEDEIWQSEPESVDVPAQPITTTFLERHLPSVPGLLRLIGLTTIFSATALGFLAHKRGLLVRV
Procedure: (§1) Affy signatures yielded 60 materials that were plated and provided for evaluation in a MAOB enzyme inhibition assay and 46 pure material were tested in a MAOB reporter assay.

MAOB [2] = assay: MAOB reporter assay; format: cell-based; settings: active = >=60% inhibition and dose response
Procedure: as §1

Row | Compound | hair count (hair count) | activity in MAOB enzyme inhibition assay (MAOB [1]) | activity in MAOB reporter assay (MAOB [2])
1 | O=c1cc(-c2ccc(O)cc2)oc2cc(O)cc(O)c12 [Apigenin] | significant hair count benefit |  | 
2 | CCN(CC)CCCC(C)Nc1c2ccc(Cl)cc2nc2ccc(OC)cc12 (stereo not drawn) [quinacrine] |  | active and hit | active and hit
